Assay [1] addresses T1, HCV1b NS5B polymerase delta 21 (Hepatitis C virus genotype 1b, UniProt P26663).
T1 construct: purified HCV1b NS5B polymerase delta 21
The experiment in a line: RNA-dependent RNA HCV NS5B (polymerase) assay and IC50 determination. The assay is classed as biochemical. As for the experimental part: Example 212—RNA-Dependent RNA HCV NS5B (Polymerase) Assay and IC50 Determination
In vitro RNA-dependent RNA polymerase activity was determined in a reaction mixture (50 μL) containing 50 mM Tris-HCl, pH 7.5, 5 mM MgCl2, 1 mM dithiothreitol, 0.5% Triton® X-100, 10 μM of UTP, 0.1-0.5 μCi of α-^32P UTP (Perkin Elmer Life Sciences), 1 μg of polyA:U16 (Midland Oligo), and 0.6 μg of purified HCV1b NS5B polymerase delta 21. Different concentrations of compounds were added to the reaction mixtures. The reaction was carried out at RT (23° C.) for 60 min and then stopped by the addition of 100 μL of 50 mM EDTA. The reaction mixtures were filtered through either a DE81 membrane or a positively charged nylon membrane, and the membranes were then extensively washed with 30 mM sodium citrate, pH 7.0 and 300 mM NaCl. The radiolabeled RNA products were quantitated using a Storm™ PhosphorImager™ (GE life Sciences). IC50 values were calculated using GraFit 6 and GraphPad Prism 5 from triplicate assays.

The subject of assay [2] is HCV1b replicon. The experiment in a line: HCV replicon assay (Huh-7 cell line with HCV1b replicon containing luciferase reporter) and EC50 determination. The class given is cell-based. The following applies: Hepatitis C virus, Huh-7 HCV1b replicon luciferase reporter, 72 hr, triplicate. As for the experimental part:
Example 213—HCV Replicon Assay and EC50 Determination
The antiviral activity of compounds against hepatitis C virus was determined by a hepatitis C virus replicon reporter cell line developed by Bartenschlager (Lohmann et al., Science 1999, 285:110-113; Bartenschlager et al., Antiviral Res 2003, 60:91-102). This cell-based assay utilized a liver cell carcinoma (Huh-7) cell line stably transformed with an HCV1b replicon containing a luciferase reporter gene. Varied concentrations of compounds were added to the reporter cell line, and further incubated at 37° C. for 72 hr in DMEM supplemented with 10% FCS. The inhibitory effects of experimental compounds or the reference compound, interferon alpha (INFα), on HCV replication were measured by luciferase activity using the Britelite™ plus luminescence reporter gene kit (Perkin Elmer, Shelton, Conn.). The Britelite plus reagent was added to the 96-well plates containing the HCV reporter cells, and luminescence was measured within 15 min using a Wallac 1450 Microbeta® Trilux liquid scintillation counter. EC50 values were calculated using GraFit 6 and GraphPad Prism 5 from triplicate HCV replicon assays.

T1 sequence (P26663 2420-2989): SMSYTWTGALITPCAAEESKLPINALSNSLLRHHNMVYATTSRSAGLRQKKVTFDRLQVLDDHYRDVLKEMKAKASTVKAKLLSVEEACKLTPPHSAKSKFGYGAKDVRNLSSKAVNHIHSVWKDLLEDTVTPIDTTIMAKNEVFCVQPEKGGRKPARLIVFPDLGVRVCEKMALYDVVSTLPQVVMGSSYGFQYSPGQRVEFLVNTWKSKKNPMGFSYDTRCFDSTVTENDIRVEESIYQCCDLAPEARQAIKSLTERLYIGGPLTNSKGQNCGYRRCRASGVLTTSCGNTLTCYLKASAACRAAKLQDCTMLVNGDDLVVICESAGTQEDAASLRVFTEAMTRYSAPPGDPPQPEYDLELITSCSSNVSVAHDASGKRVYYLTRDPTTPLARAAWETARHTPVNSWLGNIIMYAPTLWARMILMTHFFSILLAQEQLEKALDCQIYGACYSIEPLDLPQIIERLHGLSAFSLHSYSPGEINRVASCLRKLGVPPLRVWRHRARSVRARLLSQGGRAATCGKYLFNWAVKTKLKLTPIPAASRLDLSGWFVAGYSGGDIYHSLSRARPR

In assay [1], `CC1CCC(C2=C(c3cc(-c4ccc(NC(=O)c5cscn5)c(F)c4)sc3C(=O)O)CN(C)CC2)CC1` (centres unmarked) [Example 198] returned an IC50 of less than 3000 nM.
For `CC1CCC(C2=C(c3cc(-c4ccc(N)nc4)sc3C(=O)O)CCN(C)C2)CC1` (centres unmarked) [Example 203, 5-(6-aminopyridin-3-yl)-3-(1-methyl-5-(4-methylcyclohexyl)-1,2,3,6-tetrahydropyridin-4-yl)thiophene-2-carboxylic acid], the IC50 in assay [1] is less than 3000 nM.
On to `CN1CCC(c2cc(-c3ccc(NC(=O)c4cscn4)cc3)sc2C(=O)O)=C(C2CCCCC2)C1` [Example 205, 3-(5-Cyclohexyl-1-methyl-1,2,3,6-tetrahydro-pyridin-4-yl)-5-{4-[(thiazole-4-carbonyl)-amino]-phenyl}-thiophene-2-carboxylic acid], for which, in assay [2] (Table 2), the EC50 is less than 3000 nM.
In assay [1], `CCCCCC1=C(c2cc(-c3ccccc3)sc2C(=O)O)CCN(C)C1` [Example 209, 3-(1-Methyl-5-pentyl-1,2,3,6-tetrahydro-pyridin-4-yl)-5-phenyl-thiophene-2-carboxylic acid] came in with a concentration for half-maximal inhibition (IC50) of 3000 to 10000 nM.
In assay [2] (Table 1), `Cc1cc(-c2cc(C3=C(C4CCC(C)CC4)CN(C)CC3)c(C(=O)O)s2)ccc1NC(=O)c1cscn1` (centres unmarked) [Example 178, 5-(3-methyl-4-(thiazole-4-carboxamido)phenyl)-3-(1-methyl-5-(4-methylcyclohexyl)-1,2,3,6-tetrahydropyridin-4-yl)thiophene-2-carboxylic acid] displayed an EC50 of less than 3000 nM.
Turning to `CC1CCC(C2=C(c3cc(-c4ccc(-c5cc6ncccn6n5)cc4)sc3C(=O)O)CN(CC(O)CO)CC2)CC1` (centres unmarked) [Example 192, 3-(1-(2,3-dihydroxypropyl)-4-(4-methylcyclohexyl)-1,2,5,6-tetrahydropyridin-3-yl)-5-(4-(pyrazolo[1,5-a]pyrimidin-2-yl)phenyl)thiophene-2-carboxylic acid], in assay [2] (Table 2), the EC50 was less than 3000 nM.
`Cc1ccc(C2=C(c3cc(-c4ccc(NC(=O)c5cscn5)cc4)sc3C(=O)O)CCN(C)C2)cc1` [Example 202, 3-(1-methyl-5-(p-tolyl)-1,2,3,6-tetrahydropyridin-4-yl)-5-(4-(thiazole-4-carboxamido)phenyl)thiophene-2-carboxylic acid]: in assay [2] (Table 1), the EC50 is less than 3000 nM.
In turn, `Cc1cc(-c2cc(C3=C(C4CCC(C)CC4)CCN(Cc4cnn(C)c4)C3)c(C(=O)O)s2)ccc1NC(=O)c1cscn1` (centres unmarked) [Example 199, 3-(1-((1-methyl-1H-pyrazol-4-yl)methyl)-4-(4-methylcyclohexyl)-1,2,5,6-tetrahydropyridin-3-yl)-5-(3-methyl-4-(thiazole-4-carboxamido)phenyl)thiophene-2-carboxylic acid] showed an IC50 in assay [1] of less than 3000 nM.
Still for that read-out and setting: in the case of `CCc1cc(-c2cc(C3=C(C4CCC(C)CC4)CN(C)CC3)c(C(=O)O)s2)ccc1NC(=O)c1cscn1` (centres unmarked) [Example 181, 5-(3-ethyl-4-(thiazole-4-carboxamido)phenyl)-3-(1-methyl-5-(4-methylcyclohexyl)-1,2,3,6-tetrahydropyridin-4-yl)thiophene-2-carboxylic acid] it was less than 3000 nM.
Same read-out and setting: in the case of `CC1CCC(C2=C(c3cc(-c4ccc(NC(=O)c5cscn5)cc4)sc3C(=O)O)CN(CC3COC(C)(C)O3)CC2)CC1` (centres unmarked) [Example 189, 3-(1-((2,2-dimethyl-1,3-dioxolan-4-yl)methyl)-4-(4-methylcyclohexyl)-1,2,5,6-tetrahydropyridin-3-yl)-5-(4-(thiazole-4-carboxamido)phenyl)thiophene-2-carboxylic acid] it was less than 3000 nM; in that of `CN1CCC(c2cc(-c3ccccc3)sc2C(=O)O)=C(C2CCCC2)C1` [Example 207, 3-(5-Cyclopentyl-1-methyl-1,2,3,6-tetrahydro-pyridin-4-yl)-5-phenyl-thiophene-2-carboxylic acid], 3000 to 10000 nM.
Turning to `CC1CCC(C2=C(c3cc(-c4ccc(NC(=O)c5cscn5)cc4)sc3C(=O)O)CN(CCO)CC2)CC1` (centres unmarked) [Example 188, 3-(1-(2-hydroxyethyl)-4-(4-methylcyclohexyl)-1,2,5,6-tetrahydropyridin-3-yl)-5-(4-(thiazole-4-carboxamido)phenyl)thiophene-2-carboxylic acid], the EC50 in assay [2] (Table 2) was less than 3000 nM.
In turn, `Cc1cc(-c2cc(C3=C(C4CCC(C)CC4)CCN(C)C3)c(C(=O)O)s2)ccc1NC(=O)c1cscn1` (centres unmarked) [Example 196, 3-(1-methyl-4-(4-methylcyclohexyl)-1,2,5,6-tetrahydropyridin-3-yl)-5-(3-methyl-4-(thiazole-4-carboxamido)phenyl)thiophene-2-carboxylic acid] displayed an EC50 in assay [2] (Table 1) of less than 3000 nM.
On to `CC1CCC(C2=C(c3cc(-c4ccc(NC(=O)c5cscn5)nc4)sc3C(=O)O)CCN(C)C2)CC1` (centres unmarked) [Example 204, 3-(1-methyl-5-(4-methylcyclohexyl)-1,2,3,6-tetrahydropyridin-4-yl)-5-(6-(thiazole-4-carboxamido)pyridin-3-yl)thiophene-2-carboxylic acid], for which, in assay [2] (Table 1), the EC50 is less than 3000 nM.
In assay [2] (Table 2), `CC1CCC(C2=C(c3cc(-c4ccc(-c5cc6ncccn6n5)cc4)sc3C(=O)O)CN(Cc3cnn(C)c3)CC2)CC1` (centres unmarked) [Example 194, 3-(1-((1-methyl-1H-pyrazol-4-yl)methyl)-4-(4-methylcyclohexyl)-1,2,5,6-tetrahydropyridin-3-yl)-5-(4-(pyrazolo[1,5-a]pyrimidin-2-yl)phenyl)thiophene-2-carboxylic acid] yielded an EC50 of less than 3000 nM.
On the same count and under the same terms, in the case of `Cc1nn(C)cc1CN1CCC(C2CCC(C)CC2)=C(c2cc(-c3ccc(NC(=O)c4cscn4)cc3)sc2C(=O)O)C1` (centres unmarked) [Example 195, 3-(1-((1,3-dimethyl-1H-pyrazol-4-yl)methyl)-4-(4-methylcyclohexyl)-1,2,5,6-tetrahydropyridin-3-yl)-5-(4-(thiazole-4-carboxamido)phenyl)thiophene-2-carboxylic acid] it was less than 3000 nM.
For `CC1CCC(C2=C(c3cc(-c4ccc(NC(=O)c5cscn5)c(C(F)(F)F)c4)sc3C(=O)O)CCN(C)C2)CC1` (centres unmarked) [Example 183, 3-(1-methyl-5-(4-methylcyclohexyl)-1,2,3,6-tetrahydropyridin-4-yl)-5-(4-(thiazole-4-carboxamido)-3-(trifluoromethyl)phenyl)thiophene-2-carboxylic acid], in assay [2] (Table 1), the concentration for a half-maximal effect (EC50) is less than 3000 nM.
`CC1CCC(C2=C(c3cc(-c4ccc(NC(=O)c5cscn5)cc4)sc3C(=O)O)CN(Cc3cnn(C)c3)CC2)CC1` (centres unmarked) [Example 193, 3-(1-((1-methyl-1H-pyrazol-4-yl)methyl)-4-(4-methylcyclohexyl)-1,2,5,6-tetrahydropyridin-3-yl)-5-(4-(thiazole-4-carboxamido)phenyl)thiophene-2-carboxylic acid] came in with an EC50 in assay [2] (Table 2) of less than 3000 nM.
Molecule `CC1CCC(C2=C(c3cc(-c4ccc(-c5cc6n(C)c(=O)ccn6n5)cc4)sc3C(=O)O)CCN(C)C2)CC1` (centres unmarked) [Example 185, 3-(1-methyl-5-(4-methylcyclohexyl)-1,2,3,6-tetrahydropyridin-4-yl)-5-(4-(4-methyl-5-oxo-4,5-dihydropyrazolo[1,5-a]pyrimidin-2-yl)phenyl)thiophene-2-carboxylic acid] gave a concentration for a half-maximal effect (EC50) in assay [2] (Table 1) of less than 3000 nM.
As for `Cc1cc(-c2cc(C3=C(C4CCC(C)CC4)CCN(CCO)C3)c(C(=O)O)s2)ccc1NC(=O)c1cscn1` (centres unmarked) [Example 197, 3-(1-(2-hydroxyethyl)-4-(4-methylcyclohexyl)-1,2,5,6-tetrahydropyridin-3-yl)-5-(3-methyl-4-(thiazole-4-carboxamido)phenyl)thiophene-2-carboxylic acid], the 50% effective concentration (EC50) in assay [2] (Table 1) is less than 3000 nM.
As for `CC1CCC(C2=C(c3cc(-c4ccc(-c5cc6ncccn6n5)cc4)sc3C(=O)O)CN(CCO)CC2)CC1` (centres unmarked) [Example 191, 3-(1-(2-hydroxyethyl)-4-(4-methylcyclohexyl)-1,2,5,6-tetrahydropyridin-3-yl)-5-(4-(pyrazolo[1,5-a]pyrimidin-2-yl)phenyl)thiophene-2-carboxylic acid], the EC50 in assay [2] (Table 2) is less than 3000 nM.
In assay [2] (Table 1), `CC1CCC(C2=C(c3cc(-c4ccc(NC(=O)c5cscn5)c(C#N)c4)sc3C(=O)O)CCN(C)C2)CC1` (centres unmarked) [Example 180, 5-(3-cyano-4-(thiazole-4-carboxamido)phenyl)-3-(1-methyl-5-(4-methylcyclohexyl)-1,2,3,6-tetrahydropyridin-4-yl)thiophene-2-carboxylic acid] yielded an EC50 of less than 3000 nM.
The molecule `CN1CCC(c2cc(-c3ccc(NC(=O)c4cscn4)cc3)sc2C(=O)O)=C(c2ccc(Cl)cc2Cl)C1` [Example 201, 3-(5-(2,4-dichlorophenyl)-1-methyl-1,2,3,6-tetrahydropyridin-4-yl)-5-(4-(thiazole-4-carboxamido)phenyl)thiophene-2-carboxylic acid] had an EC50 in assay [2] (Table 1) of less than 3000 nM.

The values above are taken from patent US10426762B2, “Inhibitors of hepatitis C virus polymerase” (COCRYSTAL DISCOVERY, INC., priority 2012, dated 2019).
